Laboratory results taken from ChEMBL document CHEMBL1122653, “Substituted (omega-aminoalkoxy) stilbene derivatives as a new class of anticonvulsants” (1984).

Legend:
Mus musculus [1] = test: Ability to suppress PTZ (pentylenetetrazole ) induced tonic extensor convulsion in mice after oral administration at a dose 50 mg/kg; format: functional
Mus musculus [2] = test: Ability to suppress maximal electroshock induced tonic extensor convulsion in mice after oral administration at 50 mg/kg; format: functional
Mus musculus [3] = test: Ability to suppress PTZ (pentylenetetrazole) induced tonic extensor convulsion in mice after oral administration at a dose 50 mg/kg; format: functional
Mus musculus [4] = test: Ability to suppress PTZ (pentylenetetrazole) induced tonic extensor convulsion in mice after oral administration at a dose 25 mg/kg; format: functional
Mus musculus [5] = test: Ability to suppress MES (maximal electroshock ) induced tonic extensor convulsion in mice after oral administration at a dose 100 mg/kg; format: functional
Mus musculus [6] = test: Ability to suppress MES (maximal electroshock ) induced tonic extensor convulsion in mice after oral administration of the compound; format: functional
Mus musculus [7] = test: Ability to suppress MES (maximal electroshock) induced tonic extensor convulsion in mice after oral administration at a dose 50 mg/kg; format: functional
Mus musculus [8] = test: Ability to suppress PTZ (pentylenetetrazole ) induced tonic extensor convulsion in mice after oral administration of the compound; format: functional
Mus musculus [9] = test: Ability to suppress PTZ (pentylenetetrazole) induced tonic extensor convulsion in mice after oral administration of the compound; format: functional
Rattus norvegicus [10] = species on record: Rattus norvegicus; test: Ability to suppress MES ( maximal electroshock ) induced seizures in male Wistar rats; format: functional
Rattus norvegicus [11] = species on record: Rattus norvegicus; test: Muscle-relaxant action in vertical screen method.; format: functional
Rattus norvegicus [12] = species on record: Rattus norvegicus; test: Ability to suppress PTZ (pentylenetetrazole) induced clonic convulsions seizures in male Wistar rats; format: functional
[13] = Ratio of the dose showing muscle relaxant action in rats and the dose suppressing MES induced seizures in rats; format: functional
Rattus norvegicus [14] = species on record: Rattus norvegicus; test: Ratio of the dose showing muscle relaxant action in rats and the dose suppressing MES induced seizures in rats
Rattus norvegicus [15] = species on record: Rattus norvegicus; test: Ability to suppress MES (maximal electroshock) induced seizures in male Wistar rats; format: functional
Rattus norvegicus [16] = species on record: Rattus norvegicus; test: Ability to suppress PTZ (convulsions seizures in male Wistar rats; format: functional
Rattus norvegicus [17] = species on record: Rattus norvegicus; test: Muscle-relaxant action in vertical screen method; format: functional

Structure (SMILES)	inhibition in vivo at 50 mg/kg (Mus musculus [1]) [%]	inhibition in vivo at 50 mg/kg (Mus musculus [2]) [%]	further results
CN(C)CCCCOc1ccccc1/C=C/c1cccc(F)c1	12.5	–	–
CC1CCCN(CCCCOc2ccccc2/C=C/c2ccccc2)C1 (stereo not given)	–	12.5	–
CN(C)CCCOc1ccccc1/C=C/c1ccccc1	–	14.2	inhibition in vivo at 50 mg/kg (Mus musculus [3]): 87.5%
CCCOC1CCCN(CCCCOc2ccccc2/C=C/c2ccccc2)C1 (stereo not given)	–	0	–
CN1CCN(CCCCOc2ccccc2/C=C/c2ccccc2F)CC1	–	0	–
CN(C)CCCCOc1ccccc1/C=C/c1ccccc1F	17	–	–
CN(C)CCCCCOc1ccccc1/C=C/c1ccccc1	–	–	inhibition in vivo at 25 mg/kg (Mus musculus [4]): 75%; inhibition in vivo at 100 mg/kg (Mus musculus [5]): 81%
OCC1CCCN(CCCCOc2ccccc2/C=C/c2ccccc2)C1 (stereo not given)	–	12.5	–
CN1CCN(CCCCOc2ccccc2/C=C/c2ccccc2)CC1.Cl.Cl	–	–	ED50 (Mus musculus [6]): 31.1 mg/kg; inhibition in vivo at 50 mg/kg (Mus musculus [7]): 0%; ED50 (Mus musculus [8]): 11.1 mg/kg
CCOC1CCCN(CCCCOc2ccccc2/C=C/c2ccccc2)C1.Cl (stereo not given)	–	–	ED50 (Mus musculus [9]): 9.8 mg/kg; ED50 (Mus musculus [6]): 17.5 mg/kg
CC(=O)OC1CCCN(CCCCOc2ccccc2/C=C/c2ccccc2)C1.Cl (stereo not given)	–	–	ED50 (Mus musculus [9]): 7.9 mg/kg; ED50 (Mus musculus [6]): 18.7 mg/kg
OC1CCN(CCCCOc2ccccc2/C=C/c2ccccc2)CC1	50	0	–
COC1CCCN(CCCCOc2ccccc2/C=C/c2ccccc2)C1.Cl (stereo not given)	–	–	ED50 (Mus musculus [9]): 9.3 mg/kg; ED50 (Mus musculus [6]): 12.6 mg/kg
COc1cccc(OCCCCN2CCN(C)CC2)c1/C=C/c1ccccc1.Cl.Cl	–	42.9	ED50 (Mus musculus [8]): 50 mg/kg
CN1CCN(CCCCOc2ccccc2/C=C/c2ccc(F)cc2)CC1.Cl.Cl	–	–	ED50 (Mus musculus [6]): 39 mg/kg; ED50 (Mus musculus [8]): 17.7 mg/kg
Cl.OC1CCCN(CCCCOc2ccccc2/C=C/c2ccccc2)C1 (stereo not given)	–	–	ED50 (Rattus norvegicus [10]): 12.5 mg/kg; ED50 (Mus musculus [6]): 20 mg/kg; ED50 (Rattus norvegicus [11]): > 300 mg/kg; ED50 (Rattus norvegicus [12]): 248 mg/kg; Therapeutic index [13]: >24
Cl.OC1CCCN(CCCCOc2ccccc2/C=C/c2ccc(F)cc2)C1 (stereo not given)	–	–	ED50 (Mus musculus [9]): 8.8 mg/kg; ED50 (Mus musculus [6]): 21.9 mg/kg
Cl.OC1CCCN(CCCCOc2ccccc2/C=C/c2cccc(F)c2)C1 (stereo not given)	–	–	ED50 (Mus musculus [6]): 38 mg/kg
O=C(O)C1CCCN(CCCCOc2ccccc2/C=C/c2ccccc2)C1 (stereo not given)	–	12.5	–
COC(=O)C1CCCN(CCCCOc2ccccc2/C=C/c2ccccc2)C1 (stereo not given)	–	0	–
C(=C\c1ccccc1OCCCCN1CCOCC1)/c1ccccc1	87.5	14.3	–
CNCCCCOc1ccccc1/C=C/c1ccccc1.Cl	–	–	ED50 (Mus musculus [6]): 118 mg/kg
Cc1ccccc1/C=C/c1ccccc1OCCCCN(C)C	16.7	–	–
COc1ccccc1/C=C/c1ccccc1OCCCCN(C)C	62.5	0	–
C(=C\c1ccccc1OCCCCN1CCCCC1)/c1ccccc1	–	42.9	inhibition in vivo at 50 mg/kg (Mus musculus [3]): 100%

Structure (SMILES)	inhibition in vivo at 50 mg/kg (Mus musculus [1]) [%]	inhibition in vivo at 50 mg/kg (Mus musculus [2]) [%]	further results
CCCN(CCC)CCCCOc1ccccc1/C=C/c1ccccc1	–	0	–
C(=C\c1ccccc1OCCCCN1CCCC1)/c1ccccc1	87.5	42.9	–
CCN(CC)CCCCOc1ccccc1/C=C/c1ccccc1.Cl	–	–	ED50 (Mus musculus [6]): 82 mg/kg; ED50 (Mus musculus [8]): 11.5 mg/kg
CN(C)CCCCOc1ccccc1/C=C/c1ccc(F)cc1.Cl	–	–	inhibition in vivo at 100 mg/kg (Mus musculus [5]): 14.3%; ED50 (Mus musculus [8]): 15.4 mg/kg
COC1CCCN(CCCCOc2ccccc2/C=C/c2ccc(F)cc2)C1 (stereo not given)	–	12.5	–
CN(C)CCN(C)CCCCOc1ccccc1/C=C/c1ccccc1	–	0	–
CC(=O)N1CCN(CCCCOc2ccccc2/C=C/c2ccccc2)CC1	12.5	0	–
C(=C\c1ccccc1OCCCCN1CCNCC1)/c1ccccc1	0	0	–
CN(C)CCCCOc1ccc(/C=C/c2ccccc2)cc1	–	12.5	–
CN(C)CCOc1ccccc1/C=C/c1ccccc1	–	–	inhibition in vivo at 50 mg/kg (Mus musculus [3]): 75%
CCCN1CCN(CCCCOc2ccccc2/C=C/c2ccccc2)CC1	87.5	42.9	–
CN(C)CCCCOc1cccc(/C=C/c2ccccc2)c1	–	0	–
CCN1CCN(CCCCOc2ccccc2/C=C/c2ccccc2)CC1	–	33.3	–
CN(C)CCCCOc1ccccc1/C=C/c1cccc(Cl)c1	23.9	14.3	–
NC(=O)C1CCCN(CCCCOc2ccccc2/C=C/c2ccccc2)C1 (stereo not given)	–	0	–
CN(C)CCCCOc1ccccc1/C=C/c1ccccc1Cl	50	14.3	–
CN(C)CCCCOc1ccccc1/C=C/c1ccc(Cl)cc1	62.5	0	–
CN1CCN(CCCCOc2ccccc2/C=C/c2ccc(Cl)c(Cl)c2)CC1	0	0	–
CN1CCN(CCCCOc2ccccc2/C=C/c2cccc(Cl)c2)CC1	50	0	–
OC1CCCN(CCCCOc2ccc(Cl)cc2/C=C/c2ccccc2)C1 (stereo not given)	–	12.5	–
COc1cccc(/C=C/c2ccccc2)c1OCCCCN(C)C	–	57.1	ED50 (Mus musculus [8]): 21.6 mg/kg
OC1CCCN(CCCCOc2ccccc2/C=C/c2cccc(Cl)c2)C1 (stereo not given)	–	12.5	–
NC(=O)N1c2ccccc2C=Cc2ccccc21 [CARBAMAZEPINE]	–	–	Therapeutic index (Rattus norvegicus [14]): 3.75; ED50 (Rattus norvegicus [11]): 120 mg/kg; ED50 (Rattus norvegicus [12]): 300 mg/kg; ED50 (Rattus norvegicus [15]): 32 mg/kg
O=C1NC(=O)C(c2ccccc2)(c2ccccc2)N1 [PHENYTOIN]	–	–	ED50 (Rattus norvegicus [16]): 250 mg/kg; ED50 (Rattus norvegicus [10]): 40 mg/kg; Therapeutic index [13]: >6.25; ED50 (Rattus norvegicus [17]): > 250 mg/kg
